Data: paper PMC9655037, “Alternation of Organ-Specific Exposure in LPS-Induced Pneumonia Mice after the Inhalation of Tetrandrine Is Governed by Metabolizing Enzyme Suppression and Lysosomal Trapping” (International Journal of Molecular Sciences, 2022)

Assays:
[1] = biological target: MDR1 (P-gp) (Homo sapiens, UniProt P08183); test: Bidirectional transport in MDR1-transfected LLC-PK1 cells
Method: (§1) MDR1 expressing LLC-PK1 cells or MOCK LLC-PK1 cells were utilized to identify whether P-gp is involved in the efflux transport across the membrane barrier. Cells were cultured as described above. Cells were seeded at a density of 2 × 10^4 in Millicell® 24-well cell culture plates with a 6.5 mm insert (0.4 µm polycarbonate membrane) from Corning (Kennebunk, ME, USA) 7 days before the experiments. On the day of the experiment, transepithelial electrical resistance (TEER) was measured to assess monolayer integrity. After washing the cells twice with HBSS, transport experiments in either the apical-to-basolateral direction (A-B) or the basolateral-to-apical direction (B-A) were conducted. […] After incubating the plates at 37 °C for 2 h, samples from the receiving and donor wells (50 μL) were taken simultaneously. All the samples were stored at −40 °C for LC-MS/MS analysis.
(§2) In the bidirectional transport study in LLC-PK1 cells, the following equations were used to calculate Papp values and the MDR1 efflux ratio.

[2] = biological target: MDR1 (Homo sapiens, UniProt P08183); test: as above; details: MDR1-transfected; 2 μM TET, 10 μM metoprolol, 10 μM atenolol, 2 μM digoxin; TAR 5 μM where stated; 2 h, 37 °C
MDR1, sequence (P08183 whole entry): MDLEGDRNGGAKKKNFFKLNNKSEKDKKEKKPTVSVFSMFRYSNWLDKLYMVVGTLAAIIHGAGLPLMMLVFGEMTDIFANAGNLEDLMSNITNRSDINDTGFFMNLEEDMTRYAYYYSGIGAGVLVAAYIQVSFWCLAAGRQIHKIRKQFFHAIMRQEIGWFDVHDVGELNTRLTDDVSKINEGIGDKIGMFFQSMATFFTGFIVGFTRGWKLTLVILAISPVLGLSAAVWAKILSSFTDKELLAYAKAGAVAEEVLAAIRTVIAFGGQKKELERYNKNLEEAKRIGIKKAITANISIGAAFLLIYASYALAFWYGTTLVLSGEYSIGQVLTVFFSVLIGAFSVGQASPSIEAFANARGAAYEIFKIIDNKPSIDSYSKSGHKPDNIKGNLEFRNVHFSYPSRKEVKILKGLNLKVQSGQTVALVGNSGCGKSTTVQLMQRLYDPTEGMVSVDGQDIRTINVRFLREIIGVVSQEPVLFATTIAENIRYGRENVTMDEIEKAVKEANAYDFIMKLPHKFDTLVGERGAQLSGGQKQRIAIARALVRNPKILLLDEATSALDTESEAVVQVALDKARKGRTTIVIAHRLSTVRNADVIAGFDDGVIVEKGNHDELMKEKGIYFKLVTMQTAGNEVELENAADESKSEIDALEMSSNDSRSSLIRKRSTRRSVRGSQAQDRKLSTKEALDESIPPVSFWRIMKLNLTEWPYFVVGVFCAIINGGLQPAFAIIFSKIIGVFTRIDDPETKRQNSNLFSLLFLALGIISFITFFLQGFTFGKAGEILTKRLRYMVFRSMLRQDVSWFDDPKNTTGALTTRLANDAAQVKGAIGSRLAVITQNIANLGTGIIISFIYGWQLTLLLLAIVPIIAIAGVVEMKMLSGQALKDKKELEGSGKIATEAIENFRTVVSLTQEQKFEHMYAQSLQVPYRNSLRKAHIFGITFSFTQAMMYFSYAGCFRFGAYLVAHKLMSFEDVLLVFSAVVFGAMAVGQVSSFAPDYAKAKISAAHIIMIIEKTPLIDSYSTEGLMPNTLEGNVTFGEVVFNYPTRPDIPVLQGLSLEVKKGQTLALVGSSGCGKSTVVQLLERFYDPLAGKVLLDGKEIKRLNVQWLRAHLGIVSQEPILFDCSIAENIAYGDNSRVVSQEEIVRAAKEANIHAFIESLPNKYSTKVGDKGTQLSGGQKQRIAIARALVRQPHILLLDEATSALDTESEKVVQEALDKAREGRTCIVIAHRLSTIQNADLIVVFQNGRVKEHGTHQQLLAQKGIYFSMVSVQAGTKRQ
Method: as §1, §2

[3] = Bidirectional transport in MOCK LLC-PK1 cells; details: pig
Method: as §1, §2

[4] = test system: HEK293-MOCK cells; test: Uptake by MOCK (empty vector) HEK293 cells; details: positive control 20 μM, 10 min
Method: (§3) Expressing OATP1B1/OATP1B3 or MOCK HEK293 cells were utilized to evaluate whether TET is a substrate of these two SLC transporters. Cell culture was performed as mentioned above. Cells were seeded on 96-well plates at the density of 0.8 × 10^5 cells/well. The culture medium was replaced with a medium containing 5 mM sodium butyrate for 24 h before the transport study to enhance the expression of transporters. For the transport assay, the DMEM media were removed and the cells were washed with pre-warmed Krebs–Henseleit buffer twice (0.1 mL/well). The second washing buffer was kept in the wells and the plate was incubated at 37 °C for 5 min before the uptake assay was initiated. […] The incubation solution was removed and the cells were washed with ice-cold transportation buffer three times (0.1 mL/well). A total of 0.1 mL pure water was added to each well to lyse the cells by repeated freezing and thawing (−196 °C–37 °C, three times). The cell lysate was collected and stored at −40 °C for LC-MS/MS analysis and protein measurement.
(§4) In the uptake study of TET by OATP1B1 and OATP1B3 expressing the HEK293 cell line, the uptake clearance (U) of the substrate was calculated according to Equation (5), the transporter-mediated uptake ratio (UR) was calculated by dividing the uptake clearance from transporter-expressing cells to that from the mock cells according to Equation (6), and the inhibition ratio (IR) was calculated according to Equation (7), where p represents the protein content and T is the duration of the incubation time. (5) U=Clysate/p×T (6) UR=U/UMOCK (7) IR=(1−Uwith inhibitor−Umock with inhibitor/Uwithout inhibitor−Umock without inhibitor)×100

[5] = biological target: T1, OATP1B3 (Homo sapiens, UniProt Q9NPD5); test: Uptake by OATP1B3-expressing HEK293 cells; details: positive control 20 μM, 10 min
T1 sequence (Q9NPD5 1-702): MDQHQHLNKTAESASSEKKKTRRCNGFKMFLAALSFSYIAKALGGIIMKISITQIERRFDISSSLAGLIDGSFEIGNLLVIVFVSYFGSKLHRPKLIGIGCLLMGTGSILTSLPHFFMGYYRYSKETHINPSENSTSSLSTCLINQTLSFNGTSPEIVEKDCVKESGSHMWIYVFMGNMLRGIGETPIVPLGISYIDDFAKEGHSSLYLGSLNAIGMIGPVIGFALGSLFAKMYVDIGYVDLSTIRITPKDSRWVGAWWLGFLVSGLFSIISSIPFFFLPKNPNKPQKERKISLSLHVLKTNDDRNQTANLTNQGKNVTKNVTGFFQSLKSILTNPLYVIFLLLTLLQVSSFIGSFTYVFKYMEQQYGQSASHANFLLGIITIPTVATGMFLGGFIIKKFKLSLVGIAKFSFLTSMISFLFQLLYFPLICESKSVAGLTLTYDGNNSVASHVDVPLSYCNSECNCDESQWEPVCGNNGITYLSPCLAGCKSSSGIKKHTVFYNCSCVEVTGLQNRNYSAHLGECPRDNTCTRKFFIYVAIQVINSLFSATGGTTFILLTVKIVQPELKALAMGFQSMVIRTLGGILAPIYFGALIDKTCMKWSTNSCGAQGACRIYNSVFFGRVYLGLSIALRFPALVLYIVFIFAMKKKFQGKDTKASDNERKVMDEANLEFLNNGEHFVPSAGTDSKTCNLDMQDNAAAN
Method: as §3, §4

[6] = test system: CYP3a; test: CYP3a probe substrate turnover in microsomes from normal and LPS-treated mice; type: in vitro ADME, mouse; details: microsomes of LPS-treated vs normal mice, Figure 4A

MDR1 (P-gp), sequence (P08183 whole entry): as the sequence (P08183 whole entry) above

For `C[C@H]1O[C@@H](O[C@H]2[C@@H](O)C[C@H](O[C@H]3[C@@H](O)C[C@H](O[C@H]4CC[C@@]5(C)[C@H](CC[C@@H]6[C@@H]5C[C@@H](O)[C@]5(C)[C@@H](C7=CC(=O)OC7)CC[C@]65O)C4)O[C@@H]3C)O[C@@H]2C)C[C@H](O)[C@@H]1O` [Digoxin, digoxin], the efflux ratio at 2 h ([1]; human, LLC-PK1) was 11.5, the “Papp A-B” value [2] was 0.98 ± 0.11 **^,## and the “Papp B-A” value [2] was 11.27 ± 0.77 **^,##. For the same compound, the Papp A→B at 2 h [3] was 2.25 ± 0.26 ×10⁻⁶ cm/s, the Papp B→A at 2 h [3] was 1.74 ± 0.2 ×10⁻⁶ cm/s and the efflux ratio at 2 h [3] was 0.77.
In the case of `COCCc1ccc(OCC(O)CNC(C)C)cc1` (centres unmarked) [Metoprolol, metoprolol], the Papp A→B at 2 h [1] is reported as 28.2 ± 0.65 ×10⁻⁶ cm/s, the Papp B→A at 2 h ([1]; human, LLC-PK1) is reported as 28.3 ± 2.07 ×10⁻⁶ cm/s and the efflux ratio at 2 h ([1]; human, LLC-PK1) is reported as 1. For the same compound, the Papp A→B at 2 h [3] was 32.2 ± 2.8 ×10⁻⁶ cm/s, the Papp B→A at 2 h [3] was 25 ± 0.3 ×10⁻⁶ cm/s and the efflux ratio at 2 h [3] was 0.7.
With `C[C@]12CC[C@@H]3c4ccc(O)cc4CC[C@H]3[C@@H]1CC[C@@H]2O[C@@H]1O[C@H](C(=O)O)[C@@H](O)[C@H](O)[C@H]1O` [Positive Control, 17β-estradiol-17β-D-glucuronide] the “Uptake Clearance” value ([4]; MOCK (OATP1B1 set)) was 2.4 ± 0.03 nM/min/mg Protein, the “Uptake Clearance” value ([4]; MOCK (OATP1B3 set)) was 2.7 ± 0.07 nM/min/mg Protein and the “Uptake Clearance” value ([4]; MOCK+RIF (OATP1B1 set)) was 2.63 ± 0.08 nM/min/mg Protein. The “Uptake Clearance” value ([4]; MOCK+RIF (OATP1B3 set)) was 2.73 ± 0.08 nM/min/mg Protein, the “Uptake Clearance” value ([5]; OATP1B3+RIF) was 3.66 ± 0.03 nM/min/mg Protein and the “Uptake Clearance” value ([5]; OATP1B3 cells) was 30.0 ± 1.46 **^, ## nM/min/mg Protein.
In the case of `Cc1ncc2n1-c1ccc(Cl)cc1C(c1ccccc1F)=NC2` [midazolam], the “1′-hydroxylation reaction lowered by LPS-induced pneumonia” value ([6]; at 24 h) is reported as ~ 2.55 fold.
For `C[C@]12CC[C@H]3[C@@H](CCC4=CC(=O)CC[C@@]43C)[C@@H]1CC[C@@H]2O` [testosterone], the “change of 6-β-hydroxylation reaction under inflammation state (no obvious alternation)” value [6] was ~ 1.14 fold.
